Reference: patent US20250339531A1, “DUX4 POLYPEPTIDES AND NUCLEIC ACIDS FOR TREATING INFLAMMATORY AND AUTOIMMUNE CONDITIONS” (Fred Hutchinson Cancer Center, priority 2021, published 2025)

Tested on: proteins that co-immunoprecipitated with DUX4-CTD constructs expressed in MB135 myoblasts
Assay: LC-MS of proteins co-immunoprecipitated with DUX4-CTD (Table 1) and western validation
Format: binding, human
Design: key to 4. mL1dL2 + Dox + IFNG / 4. + IFNG mix / 4. longCTD + Dox + IFNG / 3. + IFNg + Dox longCTD / 3. + Dox longCTD / 3. + IFNG longCTD: peptide-spectrum matches (PSMs) per protein
Conditions: for 3. + Dox longCTD / 3. + IFNg + Dox longCTD / 3. + IFNG longCTD: bait longCTD; for 3. + Dox longCTD: experiment 3, Dox only; for 3. + IFNg + Dox longCTD: experiment 3, IFNg + Dox; for SUM of PSMS: sum over all samples; for 4. longCTD + Dox + IFNG: LC-MS counts of the listed protein co-immunoprecipitated with DUX4-CTD bait longCTD; for 3. + IFNG longCTD: experiment 3, IFNG only, no doxycycline (bait at background level); for 4. + IFNG mix: LC-MS value per protein co-immunoprecipitated from MB135 myoblasts, + IFNG mix sample (no Dox)
From the text: As an unbiased method to identify proteins that interact with the C-terminal region of DUX4, liquid chromatography mass spectroscopy (LC-MS) was used to identify proteins that co-immunoprecipitated with DUX4-CTD constructs expressed in MB135 myoblasts. In the first experiment, MB135iDUX4-CTD cells were used, either untreated, treated with doxycycline alone, or with both doxycycline and IFNG. In the second experiment, MB135iDUX4-CTD and MB135iDUX4mL1dL2 cells were used, both treated with doxycycline and IFNG, compared to these two cell lines untreated and combined as a control. Proteins with a minimum of 2 peptide spectrum matches (PSMs) in at least one sample that were identified in both experiments were assigned to one of ten categories (see Methods) to separate candidate interactors from other categories that might be co-purified because of obligate interactions (e.g., proteasome or ribosome) or might be less likely to be physiologically relevant (e.g., cytoskeletal proteins). Candidate interactors were then ranked based on the total PSMs for that protein across all samples.
Centrifugation at 2500 rcf at 4° C. for 5 min pelleted the nuclei, supernatant was discarded, and nuclei resuspended in 1 mL IP buffer pH 7.4 (25 mM Tris-HCl pH 7.5, 175 mM NaCl, 1 mM EDTA, 0.2% NP-40, 5% glycerol) and incubated for 1 hour at 4° C. with rotation then spun at 21000 rcf for 10 minutes at 4° C. to pellet insoluble debris. Protein concentration was determined using the Pierce BCA Protein Assay Kit (ThermoFisher, 23225). An equivalent amount of protein per sample was pre-cleared with Dynabeads Protein G (Invitrogen) bound to mouse IgG (Abcam #131368) for 1 hour at 4° C. with rotation. FLAG-tagged constructs were then immunoprecipitated with Dynabeads Protein G beads coupled to mouse anti-FLAG M2 mAb (Sigma F3165) for 3 hours at 4° C. with rotation. Beads were washed 3× with 1 mL IP buffer and eluted by adding 2× NuPage LDS Sample Buffer (Thermo Fisher, diluted from 4× with PBS) to the beads and heating for 10 minutes at 70° C.
For LC-MS, anti-FLAG immunoprecipitation was performed with beads cross-linked to the anti-FLAG antibody and the proteins competitively eluted with FLAG peptide. Eluted protein samples were electrophoresed into a NuPage 4-12% Bis-Tris gel, excised, and processed by the Fred Hutchinson Cancer Research Center Proteomics Core. Samples were reduced, alkylated, digested with trypsin, desalted, and run on the Orbitrap Eclipse Tribid Mass Spectrometer (Thermo Fisher). Proteomics data were analyzed using Proteome Discoverer 2.4 against a Uniprot human database that included common contaminants using Sequest HT and Percolator for scoring. […] Proteins that were identified in at least one sample from both independent experiments with at least 2 PSMs in one sample were assigned to one of ten categories: 1, candidates; 2, cytoskeletal associated; 3, cytoskeletal; 4, ribosome/translation associated; 5, proteasome associated; 6, membrane or extracellular; ER, golgi, or vesicle associated; 8, lipid metabolism; 9, chaperones; 10, nuclear import or nuclear membrane associated. The proteins in category 1 were further investigated for interactions with DUX4.

[1] = LC-MS counts of the listed protein co-immunoprecipitated with DUX4-CTD bait mL1dL2, experiment 4, Dox + IFNG
[2] = LC-MS value per protein co-immunoprecipitated with DUX4-CTD construct mL1dL2 in MB135 myoblasts, + Dox + IFNG, kind of count not given

Row | Substance | 3. + Dox longCTD | 3. + IFNg + Dox longCTD | SUM of PSMS | 4. longCTD + Dox + IFNG (experiment 4, Dox + IFNG) | 3. + IFNG longCTD | 4. mL1dL2 + Dox + IFNG [1] | 4. mL1dL2 + Dox + IFNG [2] | 4. + IFNG mix (kind of count not given)
1 | P40763 | 1 | 3 | 5 |  |  |  |  | 
2 | P47929 | 1 | 1 | 8 | 6 |  |  |  | 
3 | P48681 | 4 | 4 | 18 | 2 | 1 |  |  | 
4 | P49368 |  | 1 | 7 | 2 |  | 4 |  | 
5 | P50990 |  | 2 | 6 | 3 |  | 1 |  | 
6 | P50991 |  | 1 | 5 | 1 |  | 3 |  | 
7 | P52294 | 4 | 8 | 15 | 2 |  | 1 |  | 
8 | P61978 | 2 | 8 | 31 | 6 |  |  |  | 
9 | P63010 | 8 | 26 | 35 |  |  |  |  | 
10 | P68363 | 22 |  | 55 |  |  |  |  | 
11 | P68371 | 42 | 70 | 283 | 100 | 11 |  |  | 
12 | P78371 |  | 1 | 7 | 4 |  | 2 |  | 
13 | P78527 | 3 | 18 | 39 | 2 |  |  |  | 
14 | PABPC1 |  |  |  |  |  |  | 5 | 
15 | PLEC |  |  |  |  |  |  | 16 | 3
16 | PPP2R1A |  |  |  |  |  |  | 5 | 
17 | PRKDC |  |  |  |  |  |  | 5 | 11
18 | PSMA6 |  |  |  |  |  |  | 4 | 

Row | Substance | 3. + Dox longCTD | 3. + IFNg + Dox longCTD | SUM of PSMS | 4. longCTD + Dox + IFNG (experiment 4, Dox + IFNG) | 3. + IFNG longCTD | 4. mL1dL2 + Dox + IFNG [1] | 4. mL1dL2 + Dox + IFNG [2] | 4. + IFNG mix (kind of count not given)
19 | PSMD2 |  |  |  |  |  |  | 3 | 1
20 | PSME2 |  |  |  |  |  |  | 4 | 
21 | PTBP1 |  |  |  |  |  |  | 1 | 
22 | Q9ULV4 | 4 | 13 | 24 | 7 |  |  |  | 
23 | Q9Y490 | 1 | 1 | 5 | 3 |  |  |  | 
24 | Q00839 | 4 | 9 | 14 |  |  |  |  | 
25 | Q09666 | 8 | 4 | 14 | 1 |  |  |  | 
26 | Q13200 |  | 3 | 11 | 4 |  |  |  | 
27 | Q13283 | 1 | 2 | 7 | 2 |  |  |  | 
28 | Q14315 | 2 | 7 | 24 | 12 |  |  |  | 
29 | Q15149 | 5 | 21 | 52 | 7 |  |  |  | 
30 | Q15208 |  |  | 11 | 6 | 1 |  |  | 
31 | Q93008 |  | 5 | 15 | 3 |  |  |  | 
32 | STAT3 |  |  |  |  |  |  | 1 | 
33 | STK38 |  |  |  |  |  |  |  | 4
34 | TUBA1B |  |  |  |  |  |  | 24 | 9
35 | TUBB4B |  |  |  |  |  |  | 47 | 13
